Assay results published in patent publication US5989846A, “Assays to identify inducers of plant defense resistance” (Rutgers, The State University of New Jersey, priority 1995, dated 1999).

Key:
[1] = system: salicylic acid binding protein; test: Competitive [14C] salicylic acid binding assay (spin-column); parameters: species or system tobacco; conditions: for Inhibition (%) 2× / Inhibition (%) 10×: [14C] salicylic acid 20 μM; for Inhibition (%) 2×: 40 μM (2×) unlabeled competitor; for Inhibition (%) 10×: 200 μM (10×) unlabeled competitor
Method: The 180 kDa native binding protein isolated was tested for binding affinity and specificity. A competitive assay was established using salicylic acid binding protein fractionated from plants as previously described.
A key element during the characterization and the purification process is a simple, inexpensive, sensitive and reliable method for determining the salicylic acid binding activity. For this purpose, spin-column exclusion chromatography was used to separate the bound [^14 C] salicylic acid (excluded) from the bulk free salicylic acid (included). Specifically, a 1.5 ml Eppendorf tube was punctured at the tip with a 20-gauge needle and a small amount of glass wool was added to cover the small hole. The tube was then filled with Bio-Gel P-6DG desalting gel (exclusion limit 6 KDa; purchased from Bio-Rad, Melville, N.Y.) which have been swollen in water. An alternative gel is Sephadex G-25 fine (from Pharmacia, Piscataway, N.J.). Excess liquid in the gel was removed and centrifuged for 5 minutes at full speed in a Dynamic centrifuge (Becton Dickinson). The process was then repeated several times until the gel filled the tube. After incubation of an aliquot of the extract or column fractions for 2 hr at 4° C. with 5 μM-20 μM [^14 C salicylic acid] (specifically radioactivity 55 Ci/mol; purchased from New England Nuclear), 150 μl of proteins binding sample was loaded onto the tube column, which was then rapidly centrifuged for 2 minutes at full speed and the solution of proteins and bound [^14 C-salicylic acid] that was excluded from the gel was collected into another tube that had been placed under the tube column during the centrifugation. One hundred microliters of this solution was then used to determine the amount of bound salicylic acid. […] For example, to determine the inhibitory effect of various salicylic acid analogues on salicylic acid binding activity, these individual analogues were included in the binding mixture containing both the protein and [^14 C] salicylic acid during the 2 hr incubation, and resulting binding activity was determined in comparison to the activity in the absence of these analogues. Likewise, to determine the effect of pH and antioxidants on the binding activity the protein sample was either dialyzed against a large volume of buffers with different pH or antioxidants were added to the protein sample to various concentrations and the resulting binding activities were then determined with the spin-column method in comparison with the activity determined in the absence of these treatments.

[2] = system: resistance or PR gene expression; parameters: key: ++: indicates a high level of biological activity; +: indicates a lower level of biological activity; ±: indicates low, but detectable biological activity in some assays; -: indicates no biological activity; conditions: Table 3; values reported in literature; cited from earlier work
PR1 genes = test: PR-1 protein/gene expression in tobacco leaves (immunoblot); type: in vivo; conditions: for Induction of PR1 gene expression: tobacco leaves
Method: The level of PR1 protein in tobacco leaves was analyzed by immunoblot analysis to establish biological activity. Three leaf discs (1 cm in diameter) were homogenized in 200 microliters of buffer containing 50 mM Tris (pH 8.0), 1 mM EDTA, 12 mM beta-mercaptoethanol and 10 mg/ml phenylmethylsulfonyl fluoride. The homogenate was centrifuged at full speed for 10 minutes in an Eppendorf microcentrifuge. The supernatant was fractionated with 15% polyacrylamide gel under denatured conditions. Protein blotting was done with a monoclonal antibody specific to PR1 protein and protein-antibody complexes were detected with an ECL kit from Amersham.
PR gene expression is both induced by SA and associated with the development of SAR. Therefore, it was of interest to test whether SA's mechanism of action for the induction of PR genes was via its inhibition of catalases which leads to enhanced H2 O2 levels. To address this question, H2 O2 abundance was artificially raised in tobacco leaves by treating with H2 O2 or compounds which either inhibit the catalase activity, like SA itself, or promote generation of H2 O2 in vivo. […]

catalase = test: In vivo catalase activity in tobacco suspension cells (oxygen electrode); type: cell-based; parameters: Inhibition (%) Catalase activity: concentration or dose not given beside the values; conditions: for Inhibition (%) Catalase activity: Table 8
Method: This was determined by adding increasing concentrations of SA or INA to tobacco suspension cells (derived from cultivar Xanthi nc), as described below. The tobacco suspension cell culture was grown in the dark in MS medium at approximately 22° C. with agitation (160 rpm). Cells were maintained by diluting 10-fold every 5 days. For experimentation, 5 ml of suspension cells obtained 3 days after dilution was transferred to a 25 ml Erlenmeyer flask and agitated (100 rpm) at room temperature in the absence or presence of SA or INA which had been adjusted to pH 5.8. After 1 hr, 1 ml of the treated cell suspension was transferred to 7 ml of fresh MS medium containing SA or INA in a 10 ml beaker (density was approximately 6 mg cells per ml). Cells were maintained in suspension with a magnetic stir bar. In vivo catalase activity was determined by measuring, with an oxygen electrode, the rate of H2 O2 -dependent O2 production immediately after addition of H2 O2 to 10 mM final concentration.

SABP/catalase = test: Competition with 14C-labeled SA for SABP/catalase in crude leaf extracts; type: binding, tobacco; conditions: for Inhibition (%) [14C]SA binding: Table 8, 14C-labeled SA 20 μM, 1 mM unlabeled compound, crude leaf extracts
ascorbate peroxidase = test: Ascorbate peroxidase activity in tobacco leaf extracts; type: biochemical, Nicotiana tabacum cv. Xanthi nc; conditions: 200 μM compound, corrected for quenching of auto oxidation
Method: […] Two grams of leaves from 6-8 week old tobacco plants (Nicotiana tabacum cv. Xanthi nc) grown at 22° C. in a 14 hr light cycle were homogenized under liquid nitrogen using a pestle and mortar.
To obtain ascorbate peroxidase-containing extracts, the soluble proteins were extracted by grinding the powder in 10 ml of 100 mM potassium phosphate, pH 7, containing […] ascorbate and 1% (weight/volume) polyvinylpyrrolidone, with a small amount of quartz sand. The homogenate was centrifuged at 14,000 g for 5 min. […] The pellet resulting from centrifugation (14,000 g, 15 min.) was resuspended in extraction buffer (100 mM potassium phosphate, pH7, containing 0.25 mM ascorbate and 1% (weight/volume) polyvinylpyrrolidone) and desalted on a PD-10 column (Pharmacia) equilibrated with 50 mM potassium phosphate, pH 7, containing 100 μM ascorbate. The extract was used immediately. […] The amount of protein per assay was 30-50 μg. Oxidation of ascorbate was followed by the decrease in the absorbance at 290 nm.
The values illustrated in FIG. 17 are the mean values for three replicated assays.

[3] = molecular target: T1, catalase activity of SABP (Nicotiana tabacum, UniProt P49319); test: Catalase activity of highly purified SABP (luminol method); type: biochemical, tobacco; conditions: 0.05 h; 1 mM SA or analogue, 1 mM H2O2, 500 ng highly purified SABP
T1 sequence (P49319 1-492): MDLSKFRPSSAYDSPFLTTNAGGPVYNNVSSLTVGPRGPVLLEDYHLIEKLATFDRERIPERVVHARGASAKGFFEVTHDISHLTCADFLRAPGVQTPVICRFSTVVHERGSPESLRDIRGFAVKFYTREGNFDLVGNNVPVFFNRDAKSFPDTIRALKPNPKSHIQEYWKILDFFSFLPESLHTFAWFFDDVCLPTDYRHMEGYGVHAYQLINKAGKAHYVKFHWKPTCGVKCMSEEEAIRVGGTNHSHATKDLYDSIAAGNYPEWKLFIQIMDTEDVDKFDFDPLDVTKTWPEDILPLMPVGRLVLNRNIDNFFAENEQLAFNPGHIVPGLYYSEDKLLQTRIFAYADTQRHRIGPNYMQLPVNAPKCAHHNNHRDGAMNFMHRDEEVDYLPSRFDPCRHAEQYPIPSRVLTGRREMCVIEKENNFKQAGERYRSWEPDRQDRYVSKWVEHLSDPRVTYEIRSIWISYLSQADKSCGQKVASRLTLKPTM
Method: Aliquots (50 μl) were removed from the assay mixture at 30 second intervals to assay for amount of H2 O2 remaining using the luminol method as has been described by Warm and Laties, Phytochem. […] The tube was placed in the measuring chamber and assay was initiated with automatic injection into the mixture of 100 μl of 0.5 mM K3 Fe(CN)6 in 0.2N NH4 OH, pH 9.5. Measurements were integrated over 5 second periods. H2 O2 was calculated from the standard curve constructed with known amounts of H2 O2. Rate constants of SABP catalase activity in the presence or absence of SA or its analogues were then calculated based on a first-order mechanism.

SABP = system: SABP; parameters: concentration or dose not given beside the values; conditions: Table 6; previously published data (Chen et al. 1993); cited from earlier work

SMILES | Inhibition (%) 2× [1] [%] | Inhibition (%) 10× [1] [%] | Biological activity [2] | Inhibition (%) Catalase activity (catalase) [%] | Inhibition (%) [14C]SA binding (SABP/catalase) [%] | other results
O=C(O)c1ccccc1 [Benzoic acid] | 14 | 25 | + |  |  | Inhibition of [14C] salicylic acid binding relative to unlabeled salicylic acid ([1]; as well as unlabeled salicylic acid): about 20%; Induction of PR1 gene expression (PR1 genes): able to induce the expression of PR1 genes; Concentration needed relative to salicylic acid for similar levels of PR1 gene expression (PR1 genes; tobacco, FIG. 6A): approximately ten-fold
O=C(O)c1ccc(O)cc1 [STR13] |  |  |  | 0 | 0 | 
Nc1ccc(C(=O)O)c(O)c1 [4-Aminosalicylic acid] | 0 | -1 | - |  |  | % Inhibition of ascorbate peroxidase (ascorbate peroxidase): 9 ± 5%
CC(C)c1cc(C(=O)O)cc(O)n1 [STR6] |  |  |  | 15 | 11 | 
O=C(O)c1c(O)cc(O)cc1O [2,4,6-Trihydroxybenzoic acid] | -1 | 3 | - |  |  | 
O=C(O)c1ccccc1Cl [2-Chlorobenzoic acid] | 0 | 2 | - |  |  | 
O=C(O)c1cc(F)nc(F)c1 [STR3] |  |  |  | 48 | 63 | 
O=C(O)CO [glycolate] |  |  |  |  |  | Induction of PR1 gene expression (PR1 genes): induced
O=C(O)c1cc(Cl)cc(Cl)c1O [STR11] |  |  |  | 100 | 85 | 
O=C(O)c1ccc(O)c(O)c1O [2,3,4-Trihydroxybenzoic acid] | 1 | 2 | - |  |  | 
Oc1ccccc1O [Catechol] | 0 | 1 | - |  |  | 
CCCc1cc(C(=O)O)cc(O)n1 [STR7] |  |  |  | 4 | 7 | 
O=C(O)C=Cc1ccccc1O [O-coumaric acid] |  |  |  |  |  | Competition for binding to salicylic acid binding protein ([1]; competitive binding assay): unable to compete for binding; Induction of PR1 gene expression (PR1 genes): did not induce PR1 gene expression
O=C(O)c1ccc(O)c(O)c1 [3,4-Dihydroxybenzoic acid] |  |  |  |  |  | inhibition at 1000 µM [3]: 5.1%; Inhibition (%) [14C]SA binding (SABP): 0%
Nc1cccc(C(=O)O)c1O [3-Aminosalicylic acid] | 1 | 5 | - |  |  | 
O=Cc1cc(Cl)nc(Cl)c1 [STR4] |  |  |  | 79 | 25 | 
OO [H2 O2, hydrogen peroxide] |  |  |  |  |  | Induction of PR1 gene expression (PR1 genes): induced the expression of PR-1 genes
O=Cc1cc(Cl)nc(Cl)c1 [analogue #7] |  |  |  |  |  | Inhibition of catalase activity in vivo (in words) (catalase): active; Inhibition of binding of 14C-labeled SA to SABP/catalase in vitro (in words) (SABP/catalase; in vitro): much less active; Induction of PR-1 protein synthesis / PR-1 gene induction (in words) (PR1 genes; N.t. cv. Xanthi nc): active
C[n+]1ccc(-c2cc[n+](C)cc2)cc1 [paraquat] |  |  |  |  |  | Induction of PR1 gene expression (PR1 genes): induced
Nc1ccc(O)c(C(=O)O)c1 [5-Aminosalicylic acid] | 1 | -2 | - |  |  | 
O=C(O)c1ccccc1O [STR8] |  |  |  | 84 | 90 | 
O=C(O)c1cccc(O)c1 [STR12] |  |  |  | 0 | 1 | 
O=C(O)c1ccccc1S [Thiosalicylic acid] | -5 | 1 | - |  |  | % Inhibition of ascorbate peroxidase (ascorbate peroxidase): 0 ± 2%
O=C(O)c1ccc(Cl)cc1O [STR9] |  |  |  | 95 | 88 | 
O=C(O)c1cc(O)c(O)cc1O [3,4,6-Trihydroxybenzoic acid] | 1 | -1 | - |  |  | 
O=C(O)c1cc(Br)nc(Br)c1 [STR2] |  |  |  | 100 | 69 | 
O=C(O)c1cc(Cl)ccc1O [STR10] |  |  |  | 100 | 87 | 
O=C(O)c1cc(Cl)nc(Cl)c1 [STR1] |  |  |  | 98 | 65 | 
O=C(O)c1cc(O)nc(O)c1 [STR5] |  |  |  | 25 | 19 | 
CCOc1ccccc1C(=O)O [2-Ethoxybenzoic acid] | -3 | 2 | - |  |  | 
